Source: patent publication US20220389061A1, “IMMUNOMODULATORS” (priority 2019, published 2022)
Starred links: 1 amine or outer side, 2 acyl side, 3 side chain; linkers in the order of their positions; H or OH if unused. Positions of bridges follow the written chain, without caps; N, C: chain ends. Non-standard residues stand in square brackets, D forms with d. Residues, ends and D or L forms follow the SMILES beside them. Groups on a side chain read outwards from the residue. *: point of attachment. Trp(1-CH2CO2Me) = COC(=O)Cn1cc(C[C@H](N)C(=O)O)c2ccccc21; Trp(1-CH2COOH) = N[C@@H](Cc1cn(CC(=O)O)c2ccccc12)C(=O)O; NH(benzothiophen-5-yl) = c1cc2cc(N*)ccc2s1; Benzofuran(2-CO) = O=C(c1cc2ccccc2o1)*; X88 = Cc1cc([N+](=O)[O-])ccc1NC(=S)*; X95 = O=[N+]([O-])c1cccc(NC(=S)*)c1; Hyp = O=C(O)[C@@H]1C[C@@H](O)CN1; X78 = S=C(Nc1c(Cl)cc(Cl)cc1Cl)*; X80 = S=C(Nc1ccc(-n2cccn2)cc1)*; X84 = COc1cc(NC(=S)*)cc(OC)c1OC; X72 = COc1ccc2nccc(C(=O)*)c2c1; NH(3-MeOPh) = COc1cccc(N*)c1; NMeNle = CCCC[C@H](NC)C(=O)O; X16 = S=C(Nc1ccc2c(c1)OCO2)*; X9 = Fc1ccc(NC(=S)*)c(Cl)c1; X2 = c1ccc(-c2ccccc2N*)cc1; X90 = Fc1cc(F)c(N*)c(F)c1; NMeA = CN[C@@H](C)C(=O)O; Dab = NCC[C@H](N)C(=O)O; Dap = NC[C@H](N)C(=O)O; X51 = Cc1cccc(Cl)c1N*; CO = O=C([*:1])[*:2]

target: T1, PD-1/PD-L1 (Homo sapiens, UniProt Q9NZQ7); assay: PD-1/PD-L1 Homogenous Time-Resolved Fluorescence (HTRF) binding assay; details: not given
T1 construct: TVMV protease site linker (C); made in house; host or cells: HEK293T cells
Procedure, shortened: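 HTRF read-out using europium cryptate anti-Ig (1 nM) and APC anti-His (20 nM) on extracellular-domain fusion proteins in dPBS/0.1% BSA/0.05% Tween-20. Inhibitor first incubated 15 min with 10 nM PD-L1-His, followed by 20 nM PD-1-Ig for another 15 min.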

T1 sequence (Q9NZQ7 18-239): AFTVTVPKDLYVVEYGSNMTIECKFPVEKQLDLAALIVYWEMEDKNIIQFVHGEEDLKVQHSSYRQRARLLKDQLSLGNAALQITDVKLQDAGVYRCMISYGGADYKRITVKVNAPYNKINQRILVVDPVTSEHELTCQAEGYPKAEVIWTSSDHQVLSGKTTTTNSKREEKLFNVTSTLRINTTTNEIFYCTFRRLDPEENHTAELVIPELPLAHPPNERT

SMILES | IC50 [nM]
CCCC[C@H]1C(=O)N(C)[C@@H](CCCC)C(=O)N[C@@H](CC(C)C)C(=O)N[C@H](C(=O)NCC(N)=O)CSCC(=O)N[C@@H](Cc2ccc(O)cc2)C(=O)N(C)[C@@H](C)C(=O)N[C@@H](CC(N)=O)C(=O)N2CCC[C@H]2C(=O)N[C@@H](CNC(=S)Nc2ccc([N+](=O)[O-])cc2C)C(=O)N[C@@H](CC(C)C)C(=O)N2C[C@H](O)C[C@H]2C(=O)N[C@@H](Cc2c[nH]c3ccccc23)C(=O)N[C@@H](CCNC(=S)Nc2ccc([N+](=O)[O-])cc2C)C(=O)N[C@@H](Cc2cn(CC(=O)O)c3ccccc23)C(=O)N1C [Example 1125] ({CH2CO}-Y[NMeA]NP[Dap](X88)L[Hyp]W[Dab](X88)[Trp(1-CH2COOH)][NMeNle][NMeNle]LCG-NH2; thioether N-14) | 6.7

same assay, conditions: PD-L1-His 10 nM pre-incubated with inhibitor, PD-1-Ig 20 nM; read-out: HTRF IC50

SMILES | IC50 [nM]
CCCC[C@H]1C(=O)N(C)[C@@H](CCCC)C(=O)N[C@@H](CC(C)C)C(=O)N[C@H](C(=O)NCC(N)=O)CSCC(=O)N[C@@H](Cc2ccc(O)cc2)C(=O)N(C)[C@@H](C)C(=O)N[C@@H](CC(N)=O)C(=O)N2CCC[C@H]2C(=O)N[C@@H](CNC(=S)Nc2cc(OC)c(OC)c(OC)c2)C(=O)N[C@@H](CC(C)C)C(=O)N2C[C@H](O)C[C@H]2C(=O)N[C@@H](Cc2c[nH]c3ccccc23)C(=O)N[C@@H](CCN)C(=O)N[C@@H](Cc2cn(CC(=O)O)c3ccccc23)C(=O)N1C [Example 1065] ({CH2CO}-Y[NMeA]NP[Dap](X84)L[Hyp]W[Dab][Trp(1-CH2COOH)][NMeNle][NMeNle]LCG-NH2; thioether N-14) | 2.8
CCCC[C@H]1C(=O)N(C)[C@@H](CCCC)C(=O)N[C@@H](CC(C)C)C(=O)N[C@H](C(=O)NCC(N)=O)CSCC(=O)N[C@@H](Cc2ccc(O)cc2)C(=O)N(C)[C@@H](C)C(=O)N[C@@H](CC(N)=O)C(=O)N2CCC[C@H]2C(=O)N[C@@H](CNC(=O)Nc2c(F)cc(F)cc2F)C(=O)N[C@@H](CC(C)C)C(=O)N2C[C@H](O)C[C@H]2C(=O)N[C@@H](Cc2c[nH]c3ccccc23)C(=O)N[C@@H](CCNC(=O)Nc2c(C)cccc2Cl)C(=O)N[C@@H](Cc2cn(CC(=O)O)c3ccccc23)C(=O)N1C [Example 1114] ({CH2CO}-Y[NMeA]NP[Dap]([CO-X90])L[Hyp]W[Dab]([CO-X51])[Trp(1-CH2COOH)][NMeNle][NMeNle]LCG-NH2; thioether N-14) | 2.5
CCCC[C@H]1C(=O)N(C)[C@@H](CCCC)C(=O)N[C@@H](CC(C)C)C(=O)N[C@H](C(=O)NCC(N)=O)CSCC(=O)N[C@@H](Cc2ccc(O)cc2)C(=O)N(C)[C@@H](C)C(=O)N[C@@H](CC(N)=O)C(=O)N2CCC[C@H]2C(=O)N[C@@H](CNC(=O)Nc2ccc3sccc3c2)C(=O)N[C@@H](CC(C)C)C(=O)N2C[C@H](O)C[C@H]2C(=O)N[C@@H](Cc2c[nH]c3ccccc23)C(=O)N[C@@H](CCNC(=O)Nc2ccc3sccc3c2)C(=O)N[C@@H](Cc2cn(CC(=O)OC)c3ccccc23)C(=O)N1C [Example 3057] ({CH2CO}-Y[NMeA]NP[Dap]([CO-NH(benzothiophen-5-yl)])L[Hyp]W[Dab]([CO-NH(benzothiophen-5-yl)])[Trp(1-CH2CO2Me)][NMeNle][NMeNle]LCG-NH2; thioether N-14) | 34
CCCC[C@H]1C(=O)N(C)[C@@H](CCCC)C(=O)N[C@@H](CC(C)C)C(=O)N[C@H](C(=O)NCC(N)=O)CSCC(=O)N[C@@H](Cc2ccc(O)cc2)C(=O)N(C)[C@@H](C)C(=O)N[C@@H](CC(N)=O)C(=O)N2CCC[C@H]2C(=O)N[C@@H](CNC(=O)c2ccnc3ccc(OC)cc23)C(=O)N[C@@H](CC(C)C)C(=O)N2C[C@H](O)C[C@H]2C(=O)N[C@@H](Cc2c[nH]c3ccccc23)C(=O)N[C@@H](CCNC(=O)c2ccnc3ccc(OC)cc23)C(=O)N[C@@H](Cc2cn(CC(=O)OC)c3ccccc23)C(=O)N1C [Example 3010] ({CH2CO}-Y[NMeA]NP[Dap](X72)L[Hyp]W[Dab](X72)[Trp(1-CH2CO2Me)][NMeNle][NMeNle]LCG-NH2; thioether N-14) | 7.8

Other lines, results leading:

IC50 [nM] | SMILES
2.8 | CCCC[C@H]1C(=O)N(C)[C@@H](CCCC)C(=O)N[C@@H](CC(C)C)C(=O)N[C@H](C(=O)NCC(N)=O)CSCC(=O)N[C@@H](Cc2ccc(O)cc2)C(=O)N(C)[C@@H](C)C(=O)N[C@@H](CC(N)=O)C(=O)N2CCC[C@H]2C(=O)N[C@@H](CNC(=S)Nc2cccc([N+](=O)[O-])c2)C(=O)N[C@@H](CC(C)C)C(=O)N2C[C@H](O)C[C@H]2C(=O)N[C@@H](Cc2c[nH]c3ccccc23)C(=O)N[C@@H](CCN)C(=O)N[C@@H](Cc2cn(CC(=O)O)c3ccccc23)C(=O)N1C [Example 1037] ({CH2CO}-Y[NMeA]NP[Dap](X95)L[Hyp]W[Dab][Trp(1-CH2COOH)][NMeNle][NMeNle]LCG-NH2; thioether N-14)
6 | CCCC[C@H]1C(=O)N(C)[C@@H](CCCC)C(=O)N[C@@H](CC(C)C)C(=O)N[C@H](C(=O)NCC(N)=O)CSCC(=O)N[C@@H](Cc2ccc(O)cc2)C(=O)N(C)[C@@H](C)C(=O)N[C@@H](CC(N)=O)C(=O)N2CCC[C@H]2C(=O)N[C@@H](CNC(=O)Nc2cccc(OC)c2)C(=O)N[C@@H](CC(C)C)C(=O)N2C[C@H](O)C[C@H]2C(=O)N[C@@H](Cc2c[nH]c3ccccc23)C(=O)N[C@@H](CCNC(=O)Nc2cccc(OC)c2)C(=O)N[C@@H](Cc2cn(CC(=O)O)c3ccccc23)C(=O)N1C [Example 1140] ({CH2CO}-Y[NMeA]NP[Dap]([CO-NH(3-MeOPh)])L[Hyp]W[Dab]([CO-NH(3-MeOPh)])[Trp(1-CH2COOH)][NMeNle][NMeNle]LCG-NH2; thioether N-14)
2.7 | CCCC[C@H]1C(=O)N(C)[C@@H](CCCC)C(=O)N[C@@H](CC(C)C)C(=O)N[C@H](C(=O)NCC(N)=O)CSCC(=O)N[C@@H](Cc2ccc(O)cc2)C(=O)N(C)[C@@H](C)C(=O)N[C@@H](CC(N)=O)C(=O)N2CCC[C@H]2C(=O)N[C@@H](CNC(=S)Nc2ccc3c(c2)OCO3)C(=O)N[C@@H](CC(C)C)C(=O)N2C[C@H](O)C[C@H]2C(=O)N[C@@H](Cc2c[nH]c3ccccc23)C(=O)N[C@@H](CCNC(=S)Nc2ccc3c(c2)OCO3)C(=O)N[C@@H](Cc2cn(CC(=O)O)c3ccccc23)C(=O)N1C [Example 3050] ({CH2CO}-Y[NMeA]NP[Dap](X16)L[Hyp]W[Dab](X16)[Trp(1-CH2COOH)][NMeNle][NMeNle]LCG-NH2; thioether N-14)
5.7 | CCCC[C@H]1C(=O)N(C)[C@@H](CCCC)C(=O)N[C@@H](CC(C)C)C(=O)N[C@H](C(=O)NCC(N)=O)CSCC(=O)N[C@@H](Cc2ccc(O)cc2)C(=O)N(C)[C@@H](C)C(=O)N[C@@H](CC(N)=O)C(=O)N2CCC[C@H]2C(=O)N[C@@H](CNC(=S)Nc2c(Cl)cc(Cl)cc2Cl)C(=O)N[C@@H](CC(C)C)C(=O)N2C[C@H](O)C[C@H]2C(=O)N[C@@H](Cc2c[nH]c3ccccc23)C(=O)N[C@@H](CCNC(=S)Nc2c(Cl)cc(Cl)cc2Cl)C(=O)N[C@@H](Cc2cn(CC(=O)O)c3ccccc23)C(=O)N1C [Example 1077] ({CH2CO}-Y[NMeA]NP[Dap](X78)L[Hyp]W[Dab](X78)[Trp(1-CH2COOH)][NMeNle][NMeNle]LCG-NH2; thioether N-14)
2.4 | CCCC[C@H]1C(=O)N(C)[C@@H](CCCC)C(=O)N[C@@H](CC(C)C)C(=O)N[C@H](C(=O)NCC(N)=O)CSCC(=O)N[C@@H](Cc2ccc(O)cc2)C(=O)N(C)[C@@H](C)C(=O)N[C@@H](CC(N)=O)C(=O)N2CCC[C@H]2C(=O)N[C@@H](CNC(=S)Nc2ccc(-n3cccn3)cc2)C(=O)N[C@@H](CC(C)C)C(=O)N2C[C@H](O)C[C@H]2C(=O)N[C@@H](Cc2c[nH]c3ccccc23)C(=O)N[C@@H](CCNC(=S)Nc2ccc(-n3cccn3)cc2)C(=O)N[C@@H](Cc2cn(CC(=O)O)c3ccccc23)C(=O)N1C [Example 1094] ({CH2CO}-Y[NMeA]NP[Dap](X80)L[Hyp]W[Dab](X80)[Trp(1-CH2COOH)][NMeNle][NMeNle]LCG-NH2; thioether N-14)
2.7 | CCCC[C@H]1C(=O)N(C)[C@@H](CCCC)C(=O)N[C@@H](CC(C)C)C(=O)N[C@H](C(=O)NCC(N)=O)CSCC(=O)N[C@@H](Cc2ccc(O)cc2)C(=O)N(C)[C@@H](C)C(=O)N[C@@H](CC(N)=O)C(=O)N2CCC[C@H]2C(=O)N[C@@H](CNC(=O)c2cc3ccccc3o2)C(=O)N[C@@H](CC(C)C)C(=O)N2C[C@H](O)C[C@H]2C(=O)N[C@@H](Cc2c[nH]c3ccccc23)C(=O)N[C@@H](CCNC(=O)c2cc3ccccc3o2)C(=O)N[C@@H](Cc2cn(CC(=O)O)c3ccccc23)C(=O)N1C [Example 3036] ({CH2CO}-Y[NMeA]NP[Dap](Benzofuran(2-CO))L[Hyp]W[Dab](Benzofuran(2-CO))[Trp(1-CH2COOH)][NMeNle][NMeNle]LCG-NH2; thioether N-14)
2.6 | CCCC[C@H]1C(=O)N(C)[C@@H](CCCC)C(=O)N[C@@H](CC(C)C)C(=O)N[C@H](C(=O)NCC(N)=O)CSCC(=O)N[C@@H](Cc2ccc(O)cc2)C(=O)N(C)[C@@H](C)C(=O)N[C@@H](CC(N)=O)C(=O)N2CCC[C@H]2C(=O)N[C@@H](CNC(=S)Nc2ccc(F)cc2Cl)C(=O)N[C@@H](CC(C)C)C(=O)N2C[C@H](O)C[C@H]2C(=O)N[C@@H](Cc2c[nH]c3ccccc23)C(=O)N[C@@H](CCN)C(=O)N[C@@H](Cc2cn(CC(=O)O)c3ccccc23)C(=O)N1C [Example 1030] ({CH2CO}-Y[NMeA]NP[Dap](X9)L[Hyp]W[Dab][Trp(1-CH2COOH)][NMeNle][NMeNle]LCG-NH2; thioether N-14)

same assay, conditions: read-out: HTRF IC50; PD-L1-His 10 nM pre-incubated with inhibitor, PD-1-Ig 20 nM

SMILES | IC50 [nM]
CCCC[C@H]1C(=O)N(C)[C@@H](CCCC)C(=O)N[C@@H](CC(C)C)C(=O)N[C@H](C(=O)NCC(N)=O)CSCC(=O)N[C@@H](Cc2ccc(O)cc2)C(=O)N(C)[C@@H](C)C(=O)N[C@@H](CC(N)=O)C(=O)N2CCC[C@H]2C(=O)N[C@@H](CNC(=O)Nc2ccccc2-c2ccccc2)C(=O)N[C@@H](CC(C)C)C(=O)N2C[C@H](O)C[C@H]2C(=O)N[C@@H](Cc2c[nH]c3ccccc23)C(=O)N[C@@H](CCNC(=O)Nc2ccccc2-c2ccccc2)C(=O)N[C@@H](Cc2cn(CC(=O)O)c3ccccc23)C(=O)N1C [Example 1014] ({CH2CO}-Y[NMeA]NP[Dap]([CO-X2])L[Hyp]W[Dab]([CO-X2])[Trp(1-CH2COOH)][NMeNle][NMeNle]LCG-NH2; thioether N-14) | 0.7
